The text below walks through data of patent US12344597B2, “Alkoxy-substituted pyridinyl derivatives as LPA1 receptor antagonists and their use in the treatment of fibrosis” (IDORSIA PHARMACEUTICALS LTD, priority 2018, dated 2025).

In the first assay the target is human LPA1 receptor (Homo sapiens (Human), UniProt Q92633). The assay is described as follows: Beta-arrestin recruitment assay to determine IC50 values for human LPAR1. The assay is classed as cell-based. Conditions: antagonist mode, Tango EDG2-bla U2OS cells, LPA 18:1 500 nM final. Put shortly: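 Tango EDG2-bla U2OS cells: LPA-driven beta-arrestin/TEV protease recruitment releases Gal4-VP16, inducing beta-lactamase reporter read with live-cell substrate. Cells seeded 20 h at 37 °C beforehand. IC50 is antagonist concentration inhibiting 50% of maximal response.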
Sequence of human LPA1 receptor (Q92633 whole entry, the tested form may be a part): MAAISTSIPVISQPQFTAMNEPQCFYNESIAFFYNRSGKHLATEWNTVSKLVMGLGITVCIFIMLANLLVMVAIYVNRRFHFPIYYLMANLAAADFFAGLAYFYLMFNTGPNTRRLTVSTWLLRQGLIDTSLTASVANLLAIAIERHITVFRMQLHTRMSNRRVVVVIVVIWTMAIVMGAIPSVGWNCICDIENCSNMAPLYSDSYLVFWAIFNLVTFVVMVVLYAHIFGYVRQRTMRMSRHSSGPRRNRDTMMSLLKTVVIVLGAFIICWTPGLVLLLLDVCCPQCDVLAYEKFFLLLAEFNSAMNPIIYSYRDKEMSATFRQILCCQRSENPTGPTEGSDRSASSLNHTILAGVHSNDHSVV
In the case of `Cc1ccc(NC(=O)C2(c3ccccc3C(C)C)CN(C(=O)Cn3nccn3)C2)c(OC(F)F)n1` [Ex 12-21, 1-(2-(2H-1,2,3-triazol-2-yl)acetyl)-N-(2-(difluoromethoxy)-6-methylpyridin-3-yl)-3-(2-isopropylphenyl)azetidine-3-carboxamide], the IC50 was 5.6 nM.

On to `COc1cc(Br)cnc1NC(=O)C1(c2ccccc2C(C)C)CN(C(=O)CC(C)(C)C(=O)O)C1` [Ex 79-5, 4-(3-((5-bromo-3-methoxypyridin-2-yl)carbamoyl)-3-(2-isopropylphenyl)azetidin-1-yl)-2,2-dimethyl-4-oxobutanoic acid], for which it took 104 nM to reach half-maximal inhibition (IC50). `Cc1cnc(NC(=O)C2(c3ccccc3C(C)C)CN(C(=O)CC(C)(C)C(=O)O)C2)c(OC(F)F)c1` [Ex 79-6, 4-(3-((3-(difluoromethoxy)-5-methylpyridin-2-yl)carbamoyl)-3-(2-isopropylphenyl)azetidin-1-yl)-2,2-dimethyl-4-oxobutanoic acid] had an IC50 of 200 nM.

As for `Cc1cnc(NC(=O)C2(c3ccccc3C(C)C)CN(C(=O)CC3(C(=O)O)CCC3)C2)c(OC(F)F)c1` [Ex 79-7, 1-(2-(3-((3-(difluoromethoxy)-5-methylpyridin-2-yl)carbamoyl)-3-(2-isopropylphenyl)azetidin-1-yl)-2-oxoethyl)cyclobutane-1-carboxylic acid], the IC50 was determined as 61 nM. Same read-out and setting: with `Cc1cnc(NC(=O)C2(c3ccccc3C(C)C)CN(S(=O)(=O)CCC(=O)OCc3ccccc3)C2)c(OC(F)F)c1` [Ex 80-1, benzyl 3-((3-((3-(difluoromethoxy)-5-methylpyridin-2-yl)carbamoyl)-3-(2-isopropylphenyl)azetidin-1-yl)sulfonyl)propanoate] the figure was 55 nM. The same measure, in the same setting: with `Cc1cnc(NC(=O)C2(c3ccccc3C(C)C)CN(S(=O)(=O)CCC(=O)O)C2)c(OC(F)F)c1` [Ex 80-2, 3-((3-((3-(difluoromethoxy)-5-methylpyridin-2-yl)carbamoyl)-3-(2-isopropylphenyl)azetidin-1-yl)sulfonyl)propanoic acid] the figure was 110 nM; with `COc1cc(Cl)cnc1NC(=O)C1(c2ccccc2C(C)C)CN(S(N)(=O)=O)C1` [Ex 81-1, N-(5-chloro-3-methoxypyridin-2-yl)-3-(2-isopropylphenyl)-1-sulfamoylazetidine-3-carboxamide], 15 nM; with `COc1cc(Br)cnc1NC(=O)C1(c2ccccc2C(C)C)CN(S(N)(=O)=O)C1` [Ex 81-2, N-(5-bromo-3-methoxypyridin-2-yl)-3-(2-isopropylphenyl)-1-sulfamoylazetidine-3-carboxamide], 13 nM. On the same count and under the same terms, with `CC(C)c1ccccc1C1(C(=O)Nc2ncc(Cl)cc2OC(F)F)CN(S(N)(=O)=O)C1` [Ex 81-3, N-(5-chloro-3-(difluoromethoxy)pyridin-2-yl)-3-(2-isopropylphenyl)-1-sulfamoylazetidine-3-carboxamide] the figure was 2 nM. `CC(C)c1ccccc1C1(C(=O)Nc2ncc(Br)cc2OC(F)F)CN(S(N)(=O)=O)C1` [Ex 81-4, N-(5-bromo-3-(difluoromethoxy)pyridin-2-yl)-3-(2-isopropylphenyl)-1-sulfamoylazetidine-3-carboxamide] showed an IC50 of 2 nM. Same read-out and setting: the result for `COc1cnc(NC(=O)C2(c3ccccc3C(C)C)CN(S(N)(=O)=O)C2)c(OC)c1` [Ex 81-5, N-(3,5-dimethoxypyridin-2-yl)-3-(2-isopropylphenyl)-1-sulfamoylazetidine-3-carboxamide] reads 63 nM; that for `CC(C)c1ccccc1C1(C(=O)Nc2ncc(Cl)cc2OC(F)F)CN(C(=O)NC2CC2)C1` [Ex 82-1, N3-(5-chloro-3-(difluoromethoxy)pyridin-2-yl)-N1-cyclopropyl-3-(2-isopropylphenyl)azetidine-1,3-dicarboxamide], 3 nM; that for `CC(C)c1ccccc1C1(C(=O)Nc2ncc(Br)cc2OC(F)F)CN(C(=O)NC2CC2)C1` [Ex 82-2, N3-(5-bromo-3-(difluoromethoxy)pyridin-2-yl)-N1-cyclopropyl-3-(2-isopropylphenyl)azetidine-1,3-dicarboxamide], 3 nM. On to `COC(=O)COC(=O)N1CC(C(=O)Nc2ncc(C)cc2OC(F)F)(c2ccccc2C(C)C)C1` [Ex 83-1, 2-methoxy-2-oxoethyl 3-((3-(difluoromethoxy)-5-methylpyridin-2-yl)carbamoyl)-3-(2-isopropylphenyl)azetidine-1-carboxylate], for which the IC50 was 74 nM. Still for that read-out and setting: with `Cc1cnc(NC(=O)C2(c3ccccc3C(C)C)CN(C(=O)OCC(=O)O)C2)c(OC(F)F)c1` [Ex 83-2, 2-((3-((3-(difluoromethoxy)-5-methylpyridin-2-yl)carbamoyl)-3-(2-isopropylphenyl)azetidine-1-carbonyl)oxy)acetic acid] the figure was 88 nM; with `Cc1cnc(NC(=O)C2(c3ccccc3C(C)C)CN(C3=NC(=O)CO3)C2)c(OC(F)F)c1` [Ex 84, N-(3-(difluoromethoxy)-5-methylpyridin-2-yl)-3-(2-isopropylphenyl)-1-(4-oxo-4,5-dihydrooxazol-2-yl)azetidine-3-carboxamide], 310 nM. On the same count and under the same terms, the result for `COc1ncccc1NC(=O)C1(c2ccccc2)CNC1` [Ex 85, N-(2-methoxypyridin-3-yl)-3-phenylazetidine-3-carboxamide, reference compound] reads more than 10000 nM; that for `COCCNS(=O)(=O)N1CC(C(=O)Nc2cccnc2OC)(c2ccccc2)C1` [Ex 86, 1-(N-(2-methoxyethyl)sulfamoyl)-N-(2-methoxypyridin-3-yl)-3-phenylazetidine-3-carboxamide, reference compound], more than 10000 nM; that for `NS(=O)(=O)N1CC(C(=O)Nc2ncc(Cl)cc2OC(F)F)(c2ccccc2C2CCCC2)C1` [Example 81-6, N-(5-chloro-3-(difluoromethoxy)pyridin-2-yl)-3-(2-cyclopentylphenyl)-1-sulfamoylazetidine-3-carboxamide], 22 nM. On the same count and under the same terms, the result for `CC(C)c1cccnc1C1(C(=O)Nc2ncc(Cl)cc2OC(F)F)CN(S(N)(=O)=O)C1` [Example 81-7, N-(5-chloro-3-(difluoromethoxy)pyridin-2-yl)-3-(3-isopropylpyridin-2-yl)-1-sulfamoylazetidine-3-carboxamide] reads 5 nM. Molecule “(R)-2-amino-5-(3-((2-(difluoromethoxy)-6-methylpyridin-3-yl)carbamoyl)-3-(2-isopropylphenyl)azetidin-1-yl)-5-oxopentanoic acid [Ex 49]” had an IC50 of 44 nM. On the same count and under the same terms, with “Methyl 4-(3-((5-bromo-3-(difluoromethoxy)pyridin-2-yl)carbamoyl)-3-(2-isopropylphenyl)azetidin-1-yl)-2,2-dimethyl-4-oxobutanoate [Ex 79-2]” the figure was 11 nM.

In turn, “N-(2-(difluoromethoxy)-6-methylpyridin-3-yl)-1-(2-(1-(2-hydroxyethyl)piperidin-4-yl)acetyl)-3-(2-isopropylphenyl)azetidine-3-carboxamide [Ex 12-140]” registered an IC50 of 122 nM. In turn, “N-(2-(difluoromethoxy)-6-methylpyridin-3-yl)-1-(3-(N-hydroxyacetamido)propanoyl)-3-(2-isopropylphenyl)azetidine-3-carboxamide [Ex 12-130]” registered an IC50 of 48 nM. Turning to “N-(2-(difluoromethoxy)-6-methylpyridin-3-yl)-1-(3-(hydroxyamino)propanoyl)-3-(2-isopropylphenyl)azetidine-3-carboxamide [Ex 12-133]”, it took 140 nM to reach half-maximal inhibition (IC50). The molecule “N-(6-ethoxy-2-methoxypyridin-3-yl)-3-(2-isopropylphenyl)azetidine-3-carboxamide [Ex 9]” showed an IC50 of 163 nM.

A further assay relates to LPA-induced skin vascular leakage. Put plainly: mouse LPA-induced skin vascular leakage model. Particulars: mice, oral administration of 100 mg/kg, LPA-induced vascular leakage (Evans blue). Format: in vivo. The method, then:
Assessment of In Vivo Potency
The in vivo potency of the compounds of formulae (I), (II) and (III) can be determined using a mouse LPA-induced skin vascular leakage model. Female Balb/c mice are treated with either vehicle or test compound (p.o.) for at least 1 h prior to administration of the albumin marker Evans blue (50 mg/kg, i.v., 0.9% NaCl) and subsequent challenge with LPA (5 μg, i.d.). After 30 minutes, mice are sacrificed by CO2 inhalation. Discs of skin from the injection sites are removed, digested in formamide (500 μl, 37° C., 24 hrs) and the content of Evans blue quantified by colorimetric assay. Results are expressed as extravasated Evans blue per skin disc (μg/disc).
As an example, the compound of Ex 12-21 is able to effectively reduce LPA-induced vascular leakage after oral administration of 100 mg/kg to mice as compared to a group of animals treated with vehicle only. Reduction of vascular leakage compared to vehicle group was ≥60%.
Turning to `Cc1ccc(NC(=O)C2(c3ccccc3C(C)C)CN(C(=O)Cn3nccn3)C2)c(OC(F)F)n1` [Ex 12-21, 1-(2-(2H-1,2,3-triazol-2-yl)acetyl)-N-(2-(difluoromethoxy)-6-methylpyridin-3-yl)-3-(2-isopropylphenyl)azetidine-3-carboxamide], the “Reduction of vascular leakage compared to vehicle group” value is given as not below 60%.
